This data set is described as follows: Human HepG2 cell viability assay in 384 well format. It counts as toxicity, cell-based. The note with it: HepG2 cells, read-out: Inhibition. Details: dose 125 nL, time 70.5 hour; cytotoxicity at 70.5 h: concentration not given beside the values.
In the case of `Cn1cc(C2CCCN2C(=O)CCCOc2ccc(F)cc2)cn1` (stereo unspecified), the cytotoxicity at 70.5 h amounted to 15.6%.
For the compound `Clc1cccc(Cl)c1-c1nnc(CNCCn2cccn2)o1`, the cytotoxicity at 70.5 h was -4.1%.
On to `N#Cc1c(Cl)nsc1N1CCN(CC2CC2)CC1`, for which the cytotoxicity at 70.5 h is 2.5%.
With `CCCC(=O)N(C)Cc1nc(N2CCCC2)ncc1-c1ccncc1` the figure was -11%; with `CCNC(=O)C1(Cc2ccc(-c3ccccc3)cc2)CCCNC1` (stereo unspecified), 4.78%.
On to `CC(C)CNC(=O)[C@H]1CCS(=O)(=O)[C@@H]2CN(Cc3ccc(Cl)cc3)C[C@H]12`, for which the cytotoxicity at 70.5 h turned out to be 3.8%.
For `CCOC(=O)COc1nc(CC(C)C)c2c(c1C#N)CCC2`, the cytotoxicity at 70.5 h was 1.02%.
Take `Cc1cc(NC(=O)CCN2CCCCC2Cn2cccn2)no1` (stereo unspecified): the cytotoxicity at 70.5 h is -11.9%.
On to `Cc1cccc2c(CCNC(=O)NCC[S+](C)[O-])c[nH]c12` (stereo unspecified), for which the cytotoxicity at 70.5 h was 0.892%.
The value for `CN1CCC(Cc2noc(-c3cn(Cc4ccc(F)cc4)nn3)n2)CC1` was -3.72%.
The value for `CCc1nc(C)sc1CN1CC[C@](C)(O)[C@H](C)C1` was -2.71%; that for `CCC(=O)N1CCC(c2nc(N3CCCC3)ncc2S(C)(=O)=O)CC1` was 17.6%; that for `Cc1nn(C)c2cnn(Cc3ccc(C(=O)NCC4CC4)o3)c12` was -10.2%.
With `COCc1ccc(C(=O)N2CCN(CC=C(C)C)[C@@H]3CS(=O)(=O)C[C@@H]32)o1`, the cytotoxicity at 70.5 h is -0.472%.
As for `Cc1cc(CN2CCN(C(=O)NCc3cccs3)CC2)no1`, the cytotoxicity at 70.5 h is -4.63%.
As for `CCc1cnc(C)nc1NCCN1CCCCCC1`, the cytotoxicity at 70.5 h was -11.6%.
The value for `CNC(=O)c1ccc(Cn2ccnc2S(C)(=O)=O)cc1` was -0.546%; that for `CCC(CO)N(Cc1cccs1)C(=O)CNS(=O)(=O)c1cccs1` (stereo unspecified) was -4.61%; that for `CC[C@@]1(O)CCN(C(=O)CN(C)Cc2ccc(F)cc2)C[C@H]1O` was 17.3%.
With `Cc1nc2c(c(NC3CCN(Cc4cccnc4)CC3)n1)CCNCC2` the figure was -18.8%; with `c1cncc(CN2CCC(NCCc3ccc4c(c3)CCO4)CC2)c1`, 4.11%; with `Cc1n[nH]c(C)c1CCC(=O)NCC1COc2ccccc2C1` (stereo unspecified), -2.08%.
The value for `O=C1CCC(C(=O)N2CCC(Cn3cc(C4CCCC4)nn3)CC2)=NN1` was -2.69%; that for `CN(C)CCn1c2c(ccc1=O)CCN(C(=O)c1ccoc1)CC2` was -1.95%; that for `CC(C)C(C)n1nccc1NC(=O)Cn1cnc2ccccc21` (stereo unspecified) was -12.4%.
On to `CCOc1ncccc1Cn1cc(-c2cncnc2)nn1`, for which the cytotoxicity at 70.5 h was -15.8%.
With `COC(=O)CC(c1cnn(C)c1)c1oc(C)cc(=O)c1O` (stereo unspecified) the figure was 7.5%; with `NC(=O)C1CCN(CC(=O)NCCn2cc(Cl)cn2)CC1`, 13.2%.
In the case of `Cc1nc(-c2cnn(C)c2)sc1C(=O)NCc1cccc(CN(C)C)c1`, the cytotoxicity at 70.5 h was -6.53%.
Regarding `O=C1NC2(CCN(c3ncccn3)CC2)CC1c1cccnc1` (stereo unspecified), the cytotoxicity at 70.5 h was -7.58%.
The value for `Cc1cccc(CNc2cncc(-n3cccn3)n2)c1` was -5.29%.
Regarding `CSCc1noc(CNC(=O)C2CCN(C(C)C)CC2)n1`, the cytotoxicity at 70.5 h is -12%.
On to `CCOc1cccc2c1OCC(C(=O)NS(=O)(=O)c1cncc(Br)c1)=C2`, for which the cytotoxicity at 70.5 h was 2.74%.
With `Cc1[nH]c2ccccc2c1CCNC(=O)N1CCC2(C1)OCCO2` the figure was -17.8%.
As to `CCOc1ccc(CN(CCC#N)CCN2CCOCC2)cc1OC`, the cytotoxicity at 70.5 h was -0.151%.
For the compound `CCS(=O)(=O)N1CCC2(CC1)COC(COc1cccnc1)C2` (stereo unspecified), the cytotoxicity at 70.5 h was -10.2%.
On to `COc1cc2ncn(CC(=O)NCCCN(C)C)c(=O)c2cc1OC`, for which the cytotoxicity at 70.5 h was -6.49%.
As to `CCN(CC)[C@@H]1CN(S(=O)(=O)c2cn(C)cn2)[C@@H]2CCCO[C@H]12`, the cytotoxicity at 70.5 h is 26.4%.
Take `c1ccc(OCc2noc(CN3CCN(C4CCCC4)CC3)n2)cc1`: the cytotoxicity at 70.5 h was 9.68%.
As to `COC(CNC(=O)C1CCN(S(C)(=O)=O)CC1)c1ccc(C)s1` (stereo unspecified), the cytotoxicity at 70.5 h is -12%.
Regarding `NCc1ccnc(Oc2ccccc2)c1`, the cytotoxicity at 70.5 h is -8.2%.
For `Cc1nn(C)c(N(C)C)c1CNC(C)COc1cccc(F)c1` (stereo unspecified), the cytotoxicity at 70.5 h turned out to be 23.8%.
Take `O=S(=O)(Cc1ccccc1CN1CCOCC(O)C1)c1ccccc1` (stereo unspecified): the cytotoxicity at 70.5 h came to 14.8%.
`Nc1c(N2CCCCC2)ncnc1N1CCOCC1`: the cytotoxicity at 70.5 h came to 1.26%.
Turning to `CCn1nccc1CN(C)c1nc(N)nc2c1nc(C)n2C`, the cytotoxicity at 70.5 h was -3.81%.
With `Cc1noc([C@@H]2C[C@H]3OCC[C@H]3N(S(=O)(=O)c3cccnc3)C2)n1`, the cytotoxicity at 70.5 h was -8.05%.
Regarding `c1ccc(-c2cc(CN3CCc4cncnc4C3)on2)cc1`, the cytotoxicity at 70.5 h was -4.72%.
For `Cc1cn(CC(=O)NC2CCC(C(=O)O)CC2)c2ccccc12` (stereo unspecified), the cytotoxicity at 70.5 h was -6.01%.
Turning to `CC(C)OCCOCc1cccc(NC(=O)NCC(=O)N(C)C)c1`, the cytotoxicity at 70.5 h is -2.88%.
With `Cc1ncc(C(=O)N2CC(C(=O)N3CCOCC3)C2)c(C)n1`, the cytotoxicity at 70.5 h was -12.5%.
For the compound `Cc1nnc(CNC(=O)C2CSCCC(=O)N2)o1` (stereo unspecified), the cytotoxicity at 70.5 h came out at 45.2%.
On to `O=C(COCc1ccccc1)N1CCCC(OCc2cccnc2)C1` (stereo unspecified), for which the cytotoxicity at 70.5 h is 15.5%.
The value for `CCc1nc(NS(=O)(=O)c2cccc(F)c2C)no1` was 7%.
With `Cc1cnn(C2CN(c3ncnc4[nH]ccc34)C2)c1` the figure was -3.84%; with `CCOC(=O)CC1CCCCN1C(=O)c1cnc(C)cn1` (stereo unspecified), -4.78%; with `CN(CCCN1CCCCCC1)C(=O)c1ccccc1NCC(=O)O`, -12.7%.
With `CN(C)c1nc2c(c(N3CCc4ccccc4C3)n1)CCNC2`, the cytotoxicity at 70.5 h is 0.802%.
With `CNc1ccc(C)cc1C(=O)N[C@H]1C[C@H]2CN(C)CCN2C1` the figure was -13.3%; with `CC(C)c1cc(C(=O)NCCN2CCCCC2CO)on1` (stereo unspecified), -7%; with `CC(C)C(=O)N1C[C@H]2CCCN[C@H]2C1`, -5.18%.
As to `Cc1occc1C(=O)N1CC[C@@H]2[C@@H](CO[C@H]2CNS(C)(=O)=O)C1`, the cytotoxicity at 70.5 h is -1.5%.
`COc1ccc(C(=O)COc2coc(CN3CCSCC3)cc2=O)cc1`: the cytotoxicity at 70.5 h is -19.9%.
Turning to `COc1ccc2c(c1)CCCN2C(=O)NCCc1cnn(C)c1`, the cytotoxicity at 70.5 h was -11.2%.
The value for `COc1ccnc(N2CCCN(c3nc(C4CC4)ns3)CC2)n1` was -9.55%.
As to `COCC(=O)N1CCCn2c(CN3CCCC3=O)nnc2C1`, the cytotoxicity at 70.5 h is -8.38%.
With `Cc1nc(CN(C)CC2CCCN(CCc3ccc(Cl)cc3)C2)n(C)n1` (stereo unspecified) the figure was -19.1%; with `Cc1cc(C(=O)N[C@@H]2CCC[C@@H](N3CCOCC3)[C@@H]2O)no1`, -6.42%.
Turning to `CC(C)c1ccc(C(C)N2CCCN(C(N)=O)CC2)cc1` (stereo unspecified), the cytotoxicity at 70.5 h was -5.71%.
For `COc1ccc(CN(Cc2nc(C)no2)C2CCCCC2)cc1OC`, the cytotoxicity at 70.5 h is -1.31%.
With `COc1ccc(CN(Cc2cnc(N)nc2)CC2CCCO2)c(OC)c1` (stereo unspecified) the figure was -2.54%; with `Cn1nnnc1SCCNC1CCN(c2ccc3c(c2)OCO3)CC1`, 4.51%.

The record behind these values is ChEMBL document CHEMBL3507680, “University of Dundee, Gates Library screen for HepG2 cell viability”.
